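A five-concentration, 48-hour dose response in 96-well plates underlies each endpoint, interpolated linearly between surrounding concentrations. Abbreviation: GI50, concentration required for 50% inhibition of growth.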 The source made the active and inactive calls. Cut-off read from the data, not from the text of the source: active = GI50 up to about 1.1 µM and inactive = higher. Starred links: 1 amine or outer side, 2 acyl side, 3 side chain; linkers in the order of their positions; H or OH if unused. Non-standard residues stand in square brackets, D forms with d. Residues, ends and D or L forms follow the SMILES beside them. X35 = C=CCC(O[*:1])C(=O)[*:2]; NMeV = CN[CH](C(=O)O)C(C)C; NMeA = CN[CH](C)C(=O)O; βAla = NCCC(=O)O
Tests used:
Assay in all cases: growth of human tumour cells (NCI), 48 h
MDA-MB-435 = tested on: MDA-MB-435
CCRF-CEM = tested on: CCRF-CEM
PC-3 = tested on: PC-3
U-251 = tested on: U-251
LOX IMVI = tested on: LOX IMVI
HOP-62 = tested on: HOP-62
K562 = tested on: K562
A498 = tested on: A498
MOLT-4 = tested on: MOLT-4
RXF 393 = tested on: RXF 393
786-0 = tested on: 786-0
SNB-75 = tested on: SNB-75
A549 = tested on: A549
RPMI-8226 = tested on: RPMI-8226
IGROV-1 = tested on: IGROV-1
SW-620 = tested on: SW-620
COLO 205 = tested on: COLO 205
MDA-MB-231 = tested on: MDA-MB-231
SR = tested on: SR
SF-539 = tested on: SF-539
MCF7 = tested on: MCF7
TK-10 = tested on: TK-10
MDA-N = tested on: MDA-N
NCI/ADR-RES = tested on: NCI/ADR-RES
M14 = tested on: M14
NCI-H522 = tested on: NCI-H522
HL-60 = tested on: HL-60
SF-295 = tested on: SF-295
KM12 = tested on: KM12
UACC-257 = tested on: UACC-257
HCT-116 = tested on: HCT-116
SK-MEL-5 = tested on: SK-MEL-5
OVCAR-4 = tested on: OVCAR-4
HCT-15 = tested on: HCT-15
NCI-H460 = tested on: NCI-H460
SK-MEL-28 = tested on: SK-MEL-28
BT-549 = tested on: BT-549
ACHN = tested on: ACHN
SF-268 = tested on: SF-268
T47D = tested on: T47D
UACC-62 = tested on: UACC-62
NCI-H226 = tested on: NCI-H226
SK-OV-3 = tested on: SK-OV-3
NCI-H23 = tested on: NCI-H23
EKVX = tested on: EKVX
OVCAR-5 = tested on: OVCAR-5
SNB-19 = tested on: SNB-19
SK-MEL-2 = tested on: SK-MEL-2
Hs-578T = tested on: Hs-578T
Malme-3M = tested on: Malme-3M
HT-29 = tested on: HT-29
UO-31 = tested on: UO-31
HOP-92 = tested on: HOP-92
CAKI-1 = tested on: CAKI-1
DU-145 = tested on: DU-145
SN12C = tested on: SN12C
OVCAR-3 = tested on: OVCAR-3
OVCAR-8 = tested on: OVCAR-8
HCC 2998 = tested on: HCC 2998

`Cn1c(=S)c2nc(SCCN3CCCC3)[nH]c2n(C)c1=O` was tested, and the GI50 (MDA-MB-435) was > 100 µM (inactive), the GI50 (CCRF-CEM) was > 100 µM (inactive) and the GI50 (PC-3) was > 100 µM (inactive). For the same compound, the GI50 (U-251) was > 100 µM (inactive), the GI50 (LOX IMVI) was > 100 µM (inactive) and the GI50 (HOP-62) was > 100 µM (inactive). The GI50 (K562) was > 100 µM (inactive), the GI50 (A498) was > 100 µM (inactive) and the GI50 (MOLT-4) was > 100 µM (inactive). For the same compound, the GI50 (RXF 393) was > 100 µM (inactive), the GI50 (786-0) was > 100 µM (inactive) and the GI50 (SNB-75) was > 100 µM (inactive). The GI50 (A549) was > 100 µM (inactive), the GI50 (RPMI-8226) was > 100 µM (inactive) and the GI50 (IGROV-1) was > 100 µM (inactive). For the same compound, the GI50 (SW-620) was > 100 µM (inactive), the GI50 (COLO 205) was > 100 µM (inactive) and the GI50 (MDA-MB-231) was > 100 µM (inactive). The GI50 (SR) was > 100 µM (inactive), the GI50 (SF-539) was > 100 µM (inactive) and the GI50 (MCF7) was > 100 µM (inactive). For the same compound, the GI50 (TK-10) was > 100 µM (inactive), the GI50 (MDA-N) was > 100 µM (inactive) and the GI50 (NCI/ADR-RES) was > 100 µM (inactive). The GI50 (M14) was > 100 µM (inactive), the GI50 (NCI-H522) was > 100 µM (inactive) and the GI50 (HL-60) was > 100 µM (inactive). For the same compound, the GI50 (SF-295) was > 100 µM (inactive), the GI50 (KM12) was > 100 µM (inactive) and the GI50 (UACC-257) was > 100 µM (inactive). For the same compound, the GI50 (HCT-116) was > 100 µM (inactive), the GI50 (SK-MEL-5) was > 100 µM (inactive) and the GI50 (OVCAR-4) was > 100 µM (inactive). For the same compound, the GI50 (HCT-15) was > 100 µM, the GI50 (NCI-H460) was > 100 µM (inactive) and the GI50 (SK-MEL-28) was > 100 µM (inactive). For the same compound, the GI50 (BT-549) was > 100 µM (inactive), the GI50 (ACHN) was > 100 µM (inactive) and the GI50 (SF-268) was > 100 µM (inactive). For the same compound, the GI50 (T47D) was > 100 µM (inactive), the GI50 (UACC-62) was > 100 µM (inactive) and the GI50 (NCI-H226) was > 100 µM (inactive). For the same compound, the GI50 (SK-OV-3) was > 100 µM (inactive), the GI50 (NCI-H23) was > 100 µM (inactive) and the GI50 (EKVX) was 76 µM (inactive). The GI50 (OVCAR-5) was > 100 µM (inactive), the GI50 (SNB-19) was > 100 µM (inactive) and the GI50 (SK-MEL-2) was > 100 µM (inactive). For the same compound, the GI50 (Hs-578T) was > 100 µM (inactive), the GI50 (Malme-3M) was > 100 µM (inactive) and the GI50 (HT-29) was > 100 µM (inactive). The GI50 (UO-31) was > 100 µM (inactive), the GI50 (HOP-92) was > 100 µM (inactive) and the GI50 (CAKI-1) was > 100 µM (inactive). The GI50 (DU-145) was > 100 µM (inactive), the GI50 (SN12C) was > 100 µM (inactive) and the GI50 (OVCAR-3) was > 100 µM (inactive). The GI50 (OVCAR-8) was > 100 µM (inactive).
`C=CCC1OC(=O)CCNC(=O)C(C)N(C)C(=O)C(C(C)C)N(C)C(=O)C(C(C)CC)NC(=O)C2CCCN2C1=O` (stereo unspecified) (cyclo([X35]PI[NMeV][NMeA][βAla]); configuration not given here) was tested, and the GI50 (MDA-MB-435) was 4.22 µM (inactive), the GI50 (CCRF-CEM) was 3.1 µM (inactive) and the GI50 (PC-3) was 5.85 µM (inactive). The GI50 (U-251) was 49.5 µM (inactive), the GI50 (LOX IMVI) was 1.85 µM (inactive) and the GI50 (HOP-62) was 10.2 µM (inactive). For the same compound, the GI50 (MOLT-4) was 2.11 µM (inactive), the GI50 (786-0) was 4.61 µM (inactive) and the GI50 (SNB-75) was 1.25 µM (inactive). The GI50 (A549) was 9.84 µM (inactive), the GI50 (RPMI-8226) was 2.62 µM (inactive) and the GI50 (IGROV-1) was 7.06 µM (inactive). The GI50 (SW-620) was 6.64 µM (inactive), the GI50 (COLO 205) was > 100 µM (inactive) and the GI50 (MDA-MB-231) was 1.62 µM (inactive). The GI50 (SR) was 2.58 µM (inactive), the GI50 (SF-539) was 45.1 µM (inactive) and the GI50 (MCF7) was > 100 µM (inactive). For the same compound, the GI50 (TK-10) was > 100 µM (inactive), the GI50 (MDA-N) was > 100 µM (inactive) and the GI50 (NCI/ADR-RES) was > 100 µM (inactive). The GI50 (M14) was 30.5 µM (inactive), the GI50 (NCI-H522) was 16 µM (inactive) and the GI50 (HL-60) was 2.56 µM (inactive). For the same compound, the GI50 (HCC 2998) was 2.25 µM (inactive), the GI50 (SF-295) was 4.08 µM (inactive) and the GI50 (KM12) was 10.8 µM (inactive). The GI50 (UACC-257) was 9.44 µM (inactive), the GI50 (HCT-116) was 3.68 µM (inactive) and the GI50 (SK-MEL-5) was 2.44 µM (inactive). The GI50 (OVCAR-4) was 66.8 µM (inactive), the GI50 (HCT-15) was 23.2 µM and the GI50 (NCI-H460) was 3.66 µM (inactive). The GI50 (SK-MEL-28) was 42.7 µM (inactive), the GI50 (BT-549) was 32 µM (inactive) and the GI50 (ACHN) was 18.4 µM (inactive). For the same compound, the GI50 (SF-268) was 81.1 µM (inactive), the GI50 (T47D) was 20.8 µM (inactive) and the GI50 (UACC-62) was 2.68 µM (inactive). For the same compound, the GI50 (NCI-H23) was 33.2 µM (inactive), the GI50 (EKVX) was 3.23 µM (inactive) and the GI50 (OVCAR-5) was > 100 µM (inactive). The GI50 (SNB-19) was > 100 µM (inactive), the GI50 (SK-MEL-2) was 9.08 µM (inactive) and the GI50 (Hs-578T) was 91.6 µM (inactive). The GI50 (HT-29) was 3.91 µM (inactive), the GI50 (UO-31) was 22.8 µM (inactive) and the GI50 (HOP-92) was 21.7 µM (inactive). For the same compound, the GI50 (CAKI-1) was 81.5 µM (inactive), the GI50 (DU-145) was 44.9 µM (inactive) and the GI50 (SN12C) was > 100 µM (inactive). For the same compound, the GI50 (OVCAR-3) was 2.16 µM (inactive) and the GI50 (OVCAR-8) was 7.89 µM (inactive).

From ChEMBL document CHEMBL1201862, “PubChem BioAssay data set” (2004)
